Publication PMC9098913, “In vitro reconstitution of Escherichia coli divisome activation” (Nature Communications, 2022)

Assay: Diffusion coefficient (Dcoeff) of FtsA from FRAP
Settings: for Diffusion Coefficient, mean: Fig. 3j; for Dcoeff: Fig. S3i/S3j
Source text: We could also use the data from these bleaching experiments to quantify the membrane-binding kinetics and diffusion of membrane-bound proteins by analysing the change of the fluorescence profile during recovery.
Equimolar concentrations of Cy3- and Cy5-labelled FtsA, supplemented with 20% unlabelled FtsA were used to study FRET and FRAP. Five pre-bleach frames were acquired, followed by acceptor photobleaching of a rectangular ROI with 40% 641 nm laser power and a dwell size of 1 µs/pixel, 75% overlapping lines. The recovery of the signal or the increase in donor intensity were measured with either two frames or one frame per second.
Bleaching the acceptor dye leads to an increase in the donor intensity, which can be used to quantify the Foerster Resonance energy transfer (FRET)[48]. FRET efficiency was quantified with E%=Ipost/Ipost+Ipre⋅100 , where Ipost is the intensity of the […] and Ipre is the […]. […] To extract the contribution of both processes, we adjusted a routine recently published by Gerganova et al.[33]. In short, the code provides the contribution of both modes of recovery by analysing the shape of the fluorescence recovery profile. […] Contribution of diffusion leads to a change of the slope of the outer borders of the bleached region (S4h right). Thus, by measuring the change of the slope of the border recovery, diffusion and simple on/off binding can be distinguished. We developed “FRAPdiff”, a graphical user interface, which uses the original fit routine by David Rutkowski. It can be used directly on.tiff movies with annotated bleach regions as ImageJ ROIs. In addition, we added optional bleach correction, user selectable projection axis (x or y), and optional mirroring of the recovery profiles, if bleaching was not symmetric. The original fit routine for estimating the recovery and diffusion dynamics can be found at https://github.com/davidmrutkowski/1DReflectingDiffusion. FRAPdiff is available at 10.5281/zenodo.6400639[49] under the GPLv3 open-source license.

FtsA WT: wild-type E. coli actin-homologue FtsA, membrane anchor of FtsZ
Diffusion Coefficient (0.2µM, + FtsZ, replicate Exp.4): 4.01E-02 | Diffusion Coefficient (0.2µM, + FtsZ, replicate Exp.5): 7.03E-05 | Diffusion Coefficient (0.2µM, + FtsZ, replicate Exp.6): 2.65E-03 | Diffusion Coefficient (0.2µM, + FtsZ, replicate Exp.7): 9.70E-04 | Diffusion Coefficient, mean (0.4 µM FtsA + N): 1.74E-03 µm2/s | Diffusion Coefficient, mean (0.4 µM FtsA + Z&N): 1.31E-03 µm2/s | Diffusion Coefficient, mean (0.4 µM FtsA + Z): 9.28E-04 µm2/s | Diffusion Coefficient (0.4µM FtsA alone, Mean, n=18 (WT), 9 (R286W)): 0.0094 | Diffusion Coefficient, mean (0.4 µM FtsA alone): 9.38E-03 µm2/s | Diffusion Coefficient (0.4µM FtsA alone, replicate Exp.1): 1.66E-03 | Diffusion Coefficient (0.4µM FtsA alone, replicate Exp.10): 2.61E-04 | Diffusion Coefficient (0.4µM FtsA alone, replicate Exp.11): 2.61E-03 | Diffusion Coefficient (0.4µM FtsA alone, replicate Exp.12): 1.80E-02 | Diffusion Coefficient (0.4µM FtsA alone, replicate Exp.13): 3.92E-03 | Diffusion Coefficient (0.4µM FtsA alone, replicate Exp.14): 4.91E-02 | Diffusion Coefficient (0.4µM FtsA alone, replicate Exp.15): 1.40E-02 | Diffusion Coefficient (0.4µM FtsA alone, replicate Exp.16): 4.71E-05 | Diffusion Coefficient (0.4µM FtsA alone, replicate Exp.17): 6.43E-03 | Diffusion Coefficient (0.4µM FtsA alone, replicate Exp.18): 3.05E-04 | Diffusion Coefficient (0.4µM FtsA alone, replicate Exp.2): 7.21E-03 | Diffusion Coefficient (0.4µM FtsA alone, replicate Exp.3): 3.35E-02 | Diffusion Coefficient (0.4µM FtsA alone, replicate Exp.4): 6.07E-07 | Diffusion Coefficient (0.4µM FtsA alone, replicate Exp.5): 4.86E-04 | Diffusion Coefficient (0.4µM FtsA alone, replicate Exp.6): 1.29E-02 | Diffusion Coefficient (0.4µM FtsA alone, replicate Exp.7): 1.54E-02 | Diffusion Coefficient (0.4µM FtsA alone, replicate Exp.8): 3.15E-04 | Diffusion Coefficient (0.4µM FtsA alone, replicate Exp.9): 2.76E-03 | Diffusion Coefficient (0.4 µM FtsA, FRAP, p-value […] 10^−6): 0.01 ± 0.01 µm^2/s | Diffusion Coefficient (0.4µM, + FtsN&Z, Mean, n=6 (WT), 9 (R286W)): 0.0013 | Diffusion Coefficient (0.4µM, + FtsN&Z, replicate Exp.1): 7.97E-04 | Diffusion Coefficient (0.4µM, + FtsN&Z, replicate Exp.2): 2.09E-03 | Diffusion Coefficient (0.4µM, + FtsN&Z, replicate Exp.3): 9.40E-04 | Diffusion Coefficient (0.4µM, + FtsN&Z, replicate Exp.4): 3.16E-04 | Diffusion Coefficient (0.4µM, + FtsN&Z, replicate Exp.5): 3.44E-03 | Diffusion Coefficient (0.4µM, + FtsN&Z, replicate Exp.6): 3.02E-04 | Diffusion Coefficient (0.4µM, + FtsN, Mean, n=5 (WT), 6 (R286W)): 0.0017 | Diffusion Coefficient (0.4µM, + FtsN, replicate Exp.1): 1.54E-03 | Diffusion Coefficient (0.4µM, + FtsN, replicate Exp.2): 2.97E-03 | Diffusion Coefficient (0.4µM, + FtsN, replicate Exp.3): 2.28E-03 | Diffusion Coefficient (0.4µM, + FtsN, replicate Exp.4): 1.80E-03 | Diffusion Coefficient (0.4µM, + FtsN, replicate Exp.5): 1.27E-04 | Diffusion Coefficient (0.4µM, + FtsZ, Mean, n=5 (WT), 8 (R286W)): 0.0009 | Diffusion Coefficient (0.4µM, + FtsZ, replicate Exp.1): 1.81E-03 | Diffusion Coefficient (0.4µM, + FtsZ, replicate Exp.2): 9.21E-04 | Diffusion Coefficient (0.4µM, + FtsZ, replicate Exp.3): 2.54E-06 | Diffusion Coefficient (0.4µM, + FtsZ, replicate Exp.4): 1.48E-07 | Diffusion Coefficient (0.4µM, + FtsZ, replicate Exp.5): 1.91E-03 | Diffusion Coefficient, mean (0.8 µM FtsA + N): 2.78E-04 µm2/s | Diffusion Coefficient, mean (0.8 µM FtsA + Z&N): 1.55E-03 µm2/s | Diffusion Coefficient, mean (0.8 µM FtsA + Z): 1.98E-04 µm2/s | Diffusion Coefficient (0.8µM FtsA alone, Mean, n=19 (WT), 8 (R286W)): 0.0008 | Diffusion Coefficient, mean (0.8 µM FtsA alone): 8.23E-04 µm2/s | Diffusion Coefficient (0.8µM FtsA alone, replicate Exp.1): 7.29E-03 | Diffusion Coefficient (0.8µM FtsA alone, replicate Exp.10): 4.22E-07 | Diffusion Coefficient (0.8µM FtsA alone, replicate Exp.11): 6.76E-05 | Diffusion Coefficient (0.8µM FtsA alone, replicate Exp.12): 1.41E-04 | Diffusion Coefficient (0.8µM FtsA alone, replicate Exp.13): 9.30E-04 | Diffusion Coefficient (0.8µM FtsA alone, replicate Exp.14): 4.15E-06 | Diffusion Coefficient (0.8µM FtsA alone, replicate Exp.15): 1.75E-03 | Diffusion Coefficient (0.8µM FtsA alone, replicate Exp.16): 1.00E-03 | Diffusion Coefficient (0.8µM FtsA alone, replicate Exp.17): 1.78E-04 | Diffusion Coefficient (0.8µM FtsA alone, replicate Exp.18): 3.36E-03 | Diffusion Coefficient (0.8µM FtsA alone, replicate Exp.19): 2.24E-04 | Diffusion Coefficient (0.8µM FtsA alone, replicate Exp.2): 2.12E-04 | Diffusion Coefficient (0.8µM FtsA alone, replicate Exp.3): 6.52E-08 | Diffusion Coefficient (0.8µM FtsA alone, replicate Exp.4): 1.44E-04 | Diffusion Coefficient (0.8µM FtsA alone, replicate Exp.5): 5.47E-08 | Diffusion Coefficient (0.8µM FtsA alone, replicate Exp.6): 4.93E-07 | Diffusion Coefficient (0.8µM FtsA alone, replicate Exp.7): 2.75E-04 | Diffusion Coefficient (0.8µM FtsA alone, replicate Exp.8): 6.96E-06 | Diffusion Coefficient (0.8µM FtsA alone, replicate Exp.9): 4.32E-05 | Diffusion Coefficient (0.8µM, + FtsN&Z, Mean, n=5 (WT), 4 (R286W)): 0.0015 | Diffusion Coefficient (0.8µM, + FtsN&Z, replicate Exp.1): 2.13E-03 | Diffusion Coefficient (0.8µM, + FtsN&Z, replicate Exp.2): 1.07E-06 | Diffusion Coefficient (0.8µM, + FtsN&Z, replicate Exp.3): 6.03E-04 | Diffusion Coefficient (0.8µM, + FtsN&Z, replicate Exp.4): 3.04E-03 | Diffusion Coefficient (0.8µM, + FtsN&Z, replicate Exp.5): 1.98E-03 | Diffusion Coefficient (0.8µM, + FtsN, Mean, n=4 (WT), 3 (R286W)): 0.000278 | Diffusion Coefficient (0.8µM, + FtsN, replicate Exp.1): 2.14E-05 | Diffusion Coefficient (0.8µM, + FtsN, replicate Exp.2): 6.16E-05 | Diffusion Coefficient (0.8µM, + FtsN, replicate Exp.3): 1.34E-04 | Diffusion Coefficient (0.8µM, + FtsN, replicate Exp.4): 8.93E-04 | Diffusion Coefficient (0.8µM, + FtsZ, Mean, n=3 (WT), 8 (R286W)): 0.0002 | Diffusion Coefficient (0.8µM, + FtsZ, replicate Exp.1): 7.26E-07 | Diffusion Coefficient (0.8µM, + FtsZ, replicate Exp.2): 4.83E-04 | Diffusion Coefficient (0.8µM, + FtsZ, replicate Exp.3): 1.10E-04 | Dcoeff (0.10 µM FtsA, replicate 1): 5.58E-02 µm2/s | Dcoeff (0.10 µM FtsA, replicate 2): 3.42E-03 µm2/s | Dcoeff (0.10 µM FtsA, replicate 3): 1.87E-02 µm2/s | Dcoeff (0.10 µM FtsA, replicate 4): 5.22E-02 µm2/s | Dcoeff (0.10 µM FtsA, summary value): 2.68E-02 µm2/s | Dcoeff (0.20 µM FtsA, summary value): 1.77E-02 µm2/s | Dcoeff (0.40 µM FtsA, summary value): 9.38E-03 µm2/s | Dcoeff (0.80 µM FtsA, summary value): 8.23E-04 µm2/s
